Among the data in US20230365553A1, “COMPOUNDS AND COMPOSITIONS FOR TREATING CONDITIONS ASSOCIATED WITH STING ACTIVITY” (IFM Due, Inc., priority 2020, published 2023) are EC50 values, retold here.

Molecules are shown by their SMILES.

T1 sequence (Q86WV6 whole entry R71H/G230A/H232R/R293Q): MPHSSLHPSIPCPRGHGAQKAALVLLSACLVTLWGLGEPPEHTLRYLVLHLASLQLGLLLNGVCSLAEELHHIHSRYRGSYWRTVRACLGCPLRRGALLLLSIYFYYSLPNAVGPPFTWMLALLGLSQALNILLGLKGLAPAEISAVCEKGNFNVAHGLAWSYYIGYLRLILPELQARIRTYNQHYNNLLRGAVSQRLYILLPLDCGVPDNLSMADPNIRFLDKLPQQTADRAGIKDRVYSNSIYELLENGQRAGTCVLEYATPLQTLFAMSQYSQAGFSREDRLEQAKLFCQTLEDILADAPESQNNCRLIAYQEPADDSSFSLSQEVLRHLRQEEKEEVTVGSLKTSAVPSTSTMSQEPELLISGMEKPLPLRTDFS

This assay has as its target T1, STING (Homo sapiens, UniProt Q86WV6, G230A/H232R/R293Q/R71H).
T1 construct: host or cells: THP1-Dual KO-IFNAR2 cells
The experiment in a line: STING reporter assay: luciferase reporter activity in THP1-Dual KO-IFNAR2 cells stimulated with 2′3′cGAMP. To be noted: 15 μM 2′3′cGAMP, 24h, read-out: hSTING EC50. The assay is classed as cell-based. How it is done: STING pathway activation by the compounds described herein was measured using THP 1-Dual™ cells (KO-IFNAR2).
THP1-Dual™ KO-IFNAR2 Cells (obtained from invivogen) were maintained in RPMI, 10% FCS, 5 ml P/S, 2 mM L-glut, 10 mM Hepes, and 1 mM sodium pyruvate. Compounds were spotted in empty 384 well tissue culture plates (Greiner 781182) by Echo for a final concentration of 0.0017-100 μM. Cells were plated into the TC plates at 40 μL per well, 2×10E6 cells/mL. For activation with STING ligand, 2′3′cGAMP (MW 718.38, obtained from Invivogen), was prepared in Optimem media.
The following solutions were prepared for each 1×384 plate: • Solution A: 2 mL Optimem with one of the following stimuli: • 60 μL of 10 mM 2′3′cGAMP→150 μM stock • Solution B: 2 mL Optimem with 60 μL Lipofectamine 2000→Incubate 5 min at RT
2 mL of solution A and 2 ml Solution B was mixed and incubated for 20 min at room temperature (RT). 20 μL of transfection solution (A+B) was added on top of the plated cells, with a final 2′3′cGAMP concentration of 15 μM. The plates were then centrifuged immediately at 340 g for 1 minute, after which they were incubated at 37° C., 5% CO2, >98% humidity for 24h. Luciferase reporter activity was then measured. EC50 values were calculated by using standard methods known in the art.
Luciferase reporter assay: 10 μL of supernatant from the assay was transferred to white 384-plate with flat bottom and squared wells. One pouch of QUANTI-Luc™ Plus was dissolved in 25 mL of water. 100 μL of QLC Stabilizer per 25 mL of QUANTI-Luc™ Plus solution was added. 50 μL of QUANTI-Luc™ Plus/QLC solution per well was then added. Luminescence was measured on a Platereader (e.g., Spectramax I3X (Molecular Devices GF3637001)).
Luciferase reporter activity was then measured. EC50 values were calculated by using standard methods known in the art.
In general terms: Reporter assays use an easily measured gene product as a stand-in for the process of interest.
As to `CC(=O)NC(C)(C)C(=O)Nc1c[nH]c2ccc(-c3cnn(-c4ccc(C(F)(F)F)cc4)c3)cc12` [Compound 181, 2-acetamido-2-methyl-N-(5-(1-(4-(trifluoromethyl)phenyl)-1H-pyrazol-4-yl)-1H-indol-3-yl)propanamide], the EC50 (usually the concentration at which the effect is half-maximal) fell in the range of 5 to 100 µM.
On to `CC(C)CC(C)(N)C(=O)Nc1c[nH]c2ccc(-c3cnn(-c4ccc(C(F)(F)F)cc4)c3)cc12` (centres unmarked) [Compound 182, 2-amino-2,4-dimethyl-N-(5-(1-(4-(trifluoromethyl)phenyl)-1H-pyrazol-4-yl)-1H-indol-3-yl)pentanamide], for which the EC50 lay within 5 to 100 µM.
Turning to `O=C(CNCC(F)(F)F)Nc1c[nH]c2ccc(-c3cnn(-c4ccc(C(F)(F)F)cc4)c3)cc12` [Compound 183, 2-((2,2,2-trifluoroethyl)amino)-N-(5-(1-(4-(trifluoromethyl)phenyl)-1H-pyrazol-4-yl)-1H-indol-3-yl)acetamide], the EC50 was 1 to 5 µM.
As to `NC1(C(=O)Nc2c[nH]c3ccc(-c4cnn(-c5ccc(C(F)(F)F)cc5)c4)cc23)CC(F)(F)C1` [Compound 185, 1-amino-3,3-difluoro-N-(5-(1-(4-(trifluoromethyl)phenyl)-1H-pyrazol-4-yl)-1H-indol-3-yl)cyclobutane-1-carboxamide], the EC50 was 5 to 100 µM.
For `O=C(Nc1c[nH]c2ccc(-c3cnn(-c4ccc(C(F)(F)F)cc4)c3)cc12)C1(O)CCCC1` [Compound 186, 1-hydroxy-N-(5-(1-(4-(trifluoromethyl)phenyl)-1H-pyrazol-4-yl)-1H-indol-3-yl)cyclopentane-1-carboxamide], the EC50 lay within 0.2 to 1 µM.
`O=C(Nc1c[nH]c2ccc(-c3cnn(-c4ccc(C(F)(F)F)cc4)c3)cc12)C1(O)CCCCC1` [Compound 187, 1-hydroxy-N-(5-(1-(4-(trifluoromethyl)phenyl)-1H-pyrazol-4-yl)-1H-indol-3-yl)cyclohexane-1-carboxamide]: the EC50 is 0.2 to 1 µM.
For `O=C(Nc1c[nH]c2ccc(-c3cnn(-c4ccc(C(F)(F)F)cc4)c3)cc12)C1CCC(CO)CC1` (centres unmarked) [Compound 188, 4-(hydroxymethyl)-N-(5-(1-(4-(trifluoromethyl)phenyl)-1H-pyrazol-4-yl)-1H-indol-3-yl)cyclohexane-1-carboxamide], the EC50 was 1 to 5 µM.
For `CC(C)(N)CC(=O)Nc1c[nH]c2ccc(-c3cnn(-c4ccc(C(F)(F)F)cc4)c3)cc12` [Compound 189, 3-amino-3-methyl-N-(5-(1-(4-(trifluoromethyl)phenyl)-1H-pyrazol-4-yl)-1H-indol-3-yl)butanamide], the EC50 is 5 to 100 µM.
As to `O=C(Nc1c[nH]c2ccc(-c3cnn(-c4ccc(C(F)(F)F)cc4)c3)cc12)C1CC(F)C1` (centres unmarked) [Compound 190, 3-fluoro-N-(5-(1-(4-(trifluoromethyl)phenyl)-1H-pyrazol-4-yl)-1H-indol-3-yl)cyclobutane-1-carboxamide], the EC50 lay in the range of 5 to 100 µM.
In the case of `O=C(Nc1c[nH]c2ccc(-c3cnn(Cc4ccc(C(F)(F)F)nc4)c3)cc12)C1CCC1` [Compound 191, N-(5-(1-((6-(trifluoromethyl)pyridin-3-yl)methyl)-1H-pyrazol-4-yl)-1H-indol-3-yl)cyclobutanecarboxamide], the EC50 was 0.2 to 1 µM.
Take `C[C@@H](O)C(=O)Nc1c[nH]c2cc(F)c(-c3cnn(-c4ccc(C(F)(F)F)cc4)c3)cc12` [Compound 192, (R)-N-(6-fluoro-5-(1-(4-(trifluoromethyl)phenyl)-1H-pyrazol-4-yl)-1H-indol-3-yl)-2-hydroxypropanamide]: the EC50 lay within 0.2 to 1 µM.
Regarding `CC(NS(C)(=O)=O)C(=O)Nc1c[nH]c2cc(F)c(-c3cnn(-c4ccc(C(F)(F)F)cc4)c3)cc12` (centres unmarked) [Compound 193, N-(6-fluoro-5-(1-(4-(trifluoromethyl)phenyl)-1H-pyrazol-4-yl)-1H-indol-3-yl)-2-(methylsulfonamido)propanamide], the EC50 is 1 to 5 µM.
In the case of `O=C(Nc1c[nH]c2ccc(-c3cnn(-c4ccc(C(F)(F)F)cc4)c3)cc12)C1(O)COC1` [Compound 194, 3-hydroxy-N-(5-(1-(4-(trifluoromethyl)phenyl)-1H-pyrazol-4-yl)-1H-indol-3-yl)oxetane-3-carboxamide], the EC50 lay within 1 to 5 µM.
To `O=C(CC(O)C(F)(F)F)Nc1c[nH]c2ccc(-c3cnn(-c4ccc(C(F)(F)F)cc4)c3)cc12` (centres unmarked) [Compound 195, 4,4,4-trifluoro-3-hydroxy-N-(5-(1-(4-(trifluoromethyl)phenyl)-1H-pyrazol-4-yl)-1H-indol-3-yl)butanamide] belongs 0.2 to 1 µM.
Then `O=C(Nc1c[nH]c2ccc(-c3cnn(-c4ccc(C(F)(F)F)cc4)c3)cc12)C(CO)C(F)(F)F` (centres unmarked) [Compound 196, 3,3,3-trifluoro-2-(hydroxymethyl)-N-(5-(1-(4-(trifluoromethyl)phenyl)-1H-pyrazol-4-yl)-1H-indol-3-yl)propanamide], with 1 to 5 µM; and `CCC(O)C(=O)Nc1c[nH]c2ccc(-c3cnn(-c4ccc(C(F)(F)F)cc4)c3)cc12` (centres unmarked) [Compound 197, 2-hydroxy-N-(5-(1-(4-(trifluoromethyl)phenyl)-1H-pyrazol-4-yl)-1H-indol-3-yl)butanamide], with 0.2 to 1 µM.
To `CC(C)(O)C(=O)Nc1c[nH]c2ccc(-c3cnn(-c4ccc(C(F)(F)F)cc4)c3)cc12` [Compound 198, 2-hydroxy-2-methyl-N-(5-(1-(4-(trifluoromethyl)phenyl)-1H-pyrazol-4-yl)-1H-indol-3-yl)propanamide] belongs 1 to 5 µM; to `COCC1(C(=O)Nc2c[nH]c3ccc(-c4cnn(-c5ccc(C(F)(F)F)cc5)c4)cc23)CCC1` [Compound 199, 1-(methoxymethyl)-N-(5-(1-(4-(trifluoromethyl)phenyl)-1H-pyrazol-4-yl)-1H-indol-3-yl)cyclobutane-1-carboxamide], 1 to 5 µM; to `CCC(C)(O)C(=O)Nc1c[nH]c2ccc(-c3cnn(-c4ccc(C(F)(F)F)cc4)c3)cc12` (centres unmarked) [Compound 200, 2-hydroxy-2-methyl-N-(5-(1-(4-(trifluoromethyl)phenyl)-1H-pyrazol-4-yl)-1H-indol-3-yl)butanamide], 1 to 5 µM.
As to `CC(C)(CO)C(=O)Nc1c[nH]c2ccc(-c3cnn(-c4ccc(C(F)(F)F)cc4)c3)cc12` [Compound 201, 3-hydroxy-2,2-dimethyl-N-(5-(1-(4-(trifluoromethyl)phenyl)-1H-pyrazol-4-yl)-1H-indol-3-yl)propanamide], the EC50 was in the range of 1 to 5 µM.
For the compound `O=C(Nc1c[nH]c2ccc(-c3cnn(-c4ccc(C(F)(F)F)cc4)c3)cc12)C1(O)CCC1` [Compound 202, 1-hydroxy-N-(5-(1-(4-(trifluoromethyl)phenyl)-1H-pyrazol-4-yl)-1H-indol-3-yl)cyclobutane-1-carboxamide], the EC50 was 0.2 to 1 µM.
Turning to `CC1(C(=O)Nc2c[nH]c3ccc(-c4cnn(-c5ccc(C(F)(F)F)cc5)c4)cc23)CCCO1` (centres unmarked) [Compound 203, 2-methyl-N-(5-(1-(4-(trifluoromethyl)phenyl)-1H-pyrazol-4-yl)-1H-indol-3-yl)tetrahydrofuran-2-carboxamide], the EC50 fell in the range of 5 to 100 µM.
As for `CC(C)[C@H](O)C(=O)Nc1c[nH]c2ccc(-c3cnn(-c4ccc(C(F)(F)F)cc4)c3)cc12` [Compound 204, (S)-2-hydroxy-3-methyl-N-(5-(1-(4-(trifluoromethyl)phenyl)-1H-pyrazol-4-yl)-1H-indol-3-yl)butanamide], the EC50 is 1 to 5 µM.
